Where two headings read alike, the source gives them in different places.
Experiments:
Assay type in all cases: biochemical
MMP-13h = MMP-13h (Homo sapiens (Human), UniProt P45452); test: Inhibition constant (Ki) on MMP-13h; details: human MMP-13
Excerpt: (§1) The inhibition constant Ki of these compounds has been determined according to the protocol described by Devel et al, 2006, J. Biol. Chem. (7).
(§2) In this table I and also in table II below, “h” corresponds to human. All of the compounds have therefore been evaluated on human MMPs.

MMP-14h = MMP-14h (Homo sapiens (Human), UniProt P50281); test: Inhibition constant (Ki) on MMP-14h; details: human MMP-14
Excerpt: as §1, §2

MMP-9h = MMP-9h (Homo sapiens (Human), UniProt P14780); test: Inhibition constant (Ki) on MMP-9h; details: human MMP-9
Excerpt: as §1, §2

MMP-2h = MMP-2h (Homo sapiens (Human), UniProt P08253); test: Inhibition constant (Ki) on MMP-2h; details: human MMP-2
Excerpt: as §1, §2

MMP-12h = MMP-12h (Homo sapiens (Human), UniProt P39900); test: Inhibition constant (Ki) on MMP-12h; details: human MMP-12
MMP-3h = MMP-3h (Homo sapiens (Human), UniProt P08254); test: Inhibition constant (Ki) on MMP-3h; details: human MMP-3
Excerpt: as §1, §2

MMP-8h = MMP-8h (Homo sapiens (Human), UniProt P22894); test: Inhibition constant (Ki) on MMP-8h; details: human MMP-8
MMP-10h = MMP-10h (Homo sapiens (Human), UniProt P09238); test: Inhibition constant (Ki) on MMP-10h; details: human MMP-10
Chain of MMP-10h (P09238 99-476): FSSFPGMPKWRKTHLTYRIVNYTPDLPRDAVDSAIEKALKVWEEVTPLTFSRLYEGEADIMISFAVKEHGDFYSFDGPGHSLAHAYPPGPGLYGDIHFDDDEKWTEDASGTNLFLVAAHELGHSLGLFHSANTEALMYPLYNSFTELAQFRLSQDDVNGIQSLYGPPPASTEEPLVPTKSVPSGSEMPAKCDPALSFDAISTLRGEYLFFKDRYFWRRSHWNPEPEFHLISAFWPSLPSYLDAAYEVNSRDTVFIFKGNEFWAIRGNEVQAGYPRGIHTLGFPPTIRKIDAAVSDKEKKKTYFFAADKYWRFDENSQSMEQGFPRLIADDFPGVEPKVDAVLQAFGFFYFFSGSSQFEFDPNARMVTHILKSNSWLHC

Chain of MMP-8h (P22894 101-467): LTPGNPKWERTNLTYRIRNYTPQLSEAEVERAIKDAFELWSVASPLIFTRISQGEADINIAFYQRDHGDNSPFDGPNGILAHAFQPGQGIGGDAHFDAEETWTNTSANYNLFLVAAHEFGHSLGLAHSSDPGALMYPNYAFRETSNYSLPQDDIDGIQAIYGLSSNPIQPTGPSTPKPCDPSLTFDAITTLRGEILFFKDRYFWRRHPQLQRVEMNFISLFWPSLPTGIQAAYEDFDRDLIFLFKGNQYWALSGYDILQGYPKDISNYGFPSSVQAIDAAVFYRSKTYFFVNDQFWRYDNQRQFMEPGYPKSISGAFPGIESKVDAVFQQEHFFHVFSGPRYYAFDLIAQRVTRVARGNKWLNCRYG
Chain of MMP-12h (P39900 106-470): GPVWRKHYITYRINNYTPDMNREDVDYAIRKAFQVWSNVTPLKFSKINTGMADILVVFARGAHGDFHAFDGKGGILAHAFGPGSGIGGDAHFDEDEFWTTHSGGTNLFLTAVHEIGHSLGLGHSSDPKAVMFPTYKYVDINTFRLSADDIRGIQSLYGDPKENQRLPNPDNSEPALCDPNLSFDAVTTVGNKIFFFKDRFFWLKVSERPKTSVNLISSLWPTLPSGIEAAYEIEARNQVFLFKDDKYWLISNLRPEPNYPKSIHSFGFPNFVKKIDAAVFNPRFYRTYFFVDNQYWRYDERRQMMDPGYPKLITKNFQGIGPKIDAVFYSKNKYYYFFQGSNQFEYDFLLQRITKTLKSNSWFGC
Chain of MMP-2h (P08253 110-660): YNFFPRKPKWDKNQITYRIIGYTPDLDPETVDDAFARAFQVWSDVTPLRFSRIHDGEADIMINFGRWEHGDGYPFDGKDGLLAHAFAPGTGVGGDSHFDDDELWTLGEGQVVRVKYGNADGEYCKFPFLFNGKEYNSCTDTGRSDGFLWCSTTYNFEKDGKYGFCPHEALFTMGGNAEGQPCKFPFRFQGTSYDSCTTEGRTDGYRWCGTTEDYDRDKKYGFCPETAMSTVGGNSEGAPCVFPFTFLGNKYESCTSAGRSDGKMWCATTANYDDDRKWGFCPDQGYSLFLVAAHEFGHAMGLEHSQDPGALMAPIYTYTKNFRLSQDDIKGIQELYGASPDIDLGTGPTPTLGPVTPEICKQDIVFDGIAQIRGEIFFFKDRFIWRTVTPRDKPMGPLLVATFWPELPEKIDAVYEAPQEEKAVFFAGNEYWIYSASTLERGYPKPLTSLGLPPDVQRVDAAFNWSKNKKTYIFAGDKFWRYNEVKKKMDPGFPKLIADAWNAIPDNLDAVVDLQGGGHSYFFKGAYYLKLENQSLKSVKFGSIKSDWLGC
Chain of MMP-3h (P08254 100-477): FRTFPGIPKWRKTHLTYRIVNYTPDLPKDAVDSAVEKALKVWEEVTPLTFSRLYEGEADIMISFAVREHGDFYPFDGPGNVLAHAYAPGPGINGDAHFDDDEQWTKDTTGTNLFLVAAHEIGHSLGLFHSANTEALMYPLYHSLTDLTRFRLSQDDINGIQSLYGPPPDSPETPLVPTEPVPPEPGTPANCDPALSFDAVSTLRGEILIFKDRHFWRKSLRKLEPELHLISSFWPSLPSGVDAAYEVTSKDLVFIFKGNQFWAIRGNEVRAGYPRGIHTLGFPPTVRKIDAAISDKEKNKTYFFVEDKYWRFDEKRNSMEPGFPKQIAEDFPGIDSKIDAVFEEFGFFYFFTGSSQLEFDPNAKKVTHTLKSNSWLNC
Chain of MMP-9h (P14780 94-707): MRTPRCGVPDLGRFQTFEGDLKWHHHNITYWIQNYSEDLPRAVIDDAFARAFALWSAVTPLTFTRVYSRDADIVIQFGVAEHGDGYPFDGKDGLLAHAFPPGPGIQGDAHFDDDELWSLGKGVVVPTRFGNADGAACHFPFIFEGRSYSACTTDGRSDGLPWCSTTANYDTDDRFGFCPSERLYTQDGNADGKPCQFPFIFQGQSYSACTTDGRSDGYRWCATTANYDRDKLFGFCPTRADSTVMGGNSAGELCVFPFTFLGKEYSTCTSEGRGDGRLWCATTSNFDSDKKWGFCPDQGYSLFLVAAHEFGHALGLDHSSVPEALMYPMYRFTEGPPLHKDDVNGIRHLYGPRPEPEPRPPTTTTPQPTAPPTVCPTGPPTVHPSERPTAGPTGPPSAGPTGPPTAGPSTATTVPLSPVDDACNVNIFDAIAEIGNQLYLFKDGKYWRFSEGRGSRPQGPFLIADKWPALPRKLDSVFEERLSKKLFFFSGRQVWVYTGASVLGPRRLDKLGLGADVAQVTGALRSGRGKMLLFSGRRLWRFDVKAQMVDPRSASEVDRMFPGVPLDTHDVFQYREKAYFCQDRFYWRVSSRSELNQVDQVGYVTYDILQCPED

Row | Structure (SMILES) | Ki (MMP-13h; read-out: Ki MMP-13h) | Ki (MMP-14h; read-out: Ki MMP-14h) | Ki (MMP-9h; read-out: Ki MMP-9h) | Ki (MMP-2h; read-out: Ki MMP-2h) | Ki (MMP-12h; read-out: Ki MMP-12h) | Ki (MMP-3h; read-out: Ki MMP-3h) | Ki (MMP-8h; read-out: Ki MMP-8h) | Ki (MMP-10h; read-out: Ki MMP-10h) | Ki (MMP-13h) | Ki (MMP-14h) | Ki (MMP-9h) | Ki (MMP-2h) | Ki (MMP-12h) | Ki (MMP-3h) | Ki (MMP-8h) | Ki (MMP-10h)
1 | C[C@H](NC(=O)[C@H](CCC(=O)O)NC(=O)CCc1ccc(-c2cccs2)cc1)C(N)=O [Compound 85, (S)-5-((S)-1-amino-1-oxopropan-2-ylamino)-5-oxo-4-(3-(4-(thiophen-2-yl)phenyl)propanamido)pentanoic acid] | > 1000 nM | > 1000 nM | > 5000 nM | 348 nM | 25.6 nM | > 10000 nM | 62 nM | 835 nM | – | – | – | – | – | – | – | –
2 | NC(=O)CC[C@H](NC(=O)CCc1ccc(-c2ccc(-c3ccccc3)cc2)cc1)C(=O)N[C@@H](CCC(=O)O)C(N)=O [Compound 72, (S)-5-amino-4-((S)-5-amino-2-(3-(4′-phenylbiphenyl-4-yl)propanamido)-5-oxopentanamido)-5-oxopentanoic acid] | – | – | – | – | – | – | – | – | 180 nM | > 5000 nM | > 5000 nM | 386 nM | 134 nM | 64 nM | > 1000 nM | > 1000 nM
3 | NC(=O)[C@H](CCC(=O)O)NC(=O)[C@H](CCC(=O)O)NC(=O)CCc1ccc(-c2cccc(O)c2)cc1 [Compound 54, (S)-5-amino-4-((S)-4-carboxy-2-(3-(3′-hydroxybiphenyl-4-yl)propanamido)butanamido)-5-oxopentanoic acid] | > 10000 nM | > 10000 nM | > 1000 nM | > 10000 nM | 176 nM | > 10000 nM | > 1000 nM | > 1000 nM | – | – | – | – | – | – | – | –
4 | NC(=O)[C@H](CCC(=O)O)NC(=O)CCc1cc(-c2ccc(-c3cccc(Cl)c3)cc2)no1 [Compound 4, (S)-5-amino-4-(3-(3-(3′-chlorobiphenyl-4-yl)isoxazol-5-yl)propanamido)-5-oxopentanoic acid] | 46 nM | > 1000 nM | 120 nM | 90 nM | 11.8 nM | 118 nM | 119 nM | 122 nM | – | – | – | – | – | – | – | –
5 | NC(=O)[C@H](Cc1c[nH]cn1)NC(=O)[C@H](CCC(=O)O)NC(=O)CCc1ccc(-c2cccs2)cc1 [Compound 86, (S)-5-((S)-1-amino-3-(1H-imidazol-4-yl)-1-oxopropan-2-ylamino)-5-oxo-4-(3-(4-(thiophen-2-yl)phenyl)propanamido)pentanoic acid] | > 1000 nM | > 1000 nM | > 1000 nM | 371 nM | 34 nM | > 10000 nM | 63 nM | > 1000 nM | – | – | – | – | – | – | – | –
6 | NC(=O)[C@H](CCC(=O)O)NC(=O)[C@H](CCC(=O)O)NC(=O)CCc1ccc(I)cc1 [Compound 31, (S)-5-amino-4-((S)-4-carboxy-2-(3-(4-iodophenyl)propanamido)butanamido)-5-oxopentanoic acid] | > 1000 nM | > 1000 nM | > 1000 nM | > 1000 nM | 155 nM | > 5000 nM | 839 nM | > 1000 nM | – | – | – | – | – | – | – | –
7 | NC(=O)[C@H](CCC(=O)O)NC(=O)[C@H](CCC(=O)O)NC(=O)CCc1ccc(-c2nc3ccccc3s2)cc1 [Compound 39, (S)-5-amino-4-((S)-2-(3-(4-(benzo[d]thiazol-2-yl)phenyl)propanamido)-4-carboxybutanamido)-5-oxopentanoic acid] | – | – | – | – | – | – | – | – | 134 nM | 547 nM | 618 nM | 151 nM | 2.2 nM | 88 nM | 146 nM | 99 nM
8 | NC(=O)[C@H](CCCC(=O)O)NC(=O)[C@H](CCCC(=O)O)NC(=O)CCc1cc(-c2ccc(-c3cccc(Cl)c3)cc2)no1 [Compound 13, (S)-6-amino-5-((S)-5-carboxy-2-(3-(3-(3′-chlorobiphenyl-4-yl)isoxazol-5-yl)propanamido)pentanamido)-6-oxohexanoïque] | – | – | – | – | – | – | – | – | 91 nM | 553 nM | 605 nM | > 1000 nM | 348 nM | 575 nM | 638 nM | > 5000 nM
9 | NC(=O)CC[C@H](NC(=O)[C@H](CCC(=O)O)NC(=O)CCc1cc(-c2ccc(-c3ccccc3)cc2)no1)C(N)=O [Compound 21, (S)-4-(3-(3-(biphenyl-4-yl)isoxazol-5-yl)propanamido)-5-((S)-1,5-diamino-1,5-dioxopentan-2-ylamino)-5-oxopentanoic acid] | 49 nM | > 1000 nM | > 1000 nM | 39.3 nM | 5.4 nM | 105 nM | 261 nM | 256 nM | – | – | – | – | – | – | – | –
10 | NC(=O)[C@H](CO)NC(=O)[C@H](CCC(=O)O)NC(=O)CCc1ccc(-c2ccc(-c3ccccc3)cc2)cc1 [Compound 68, (S)-5-((S)-1-amino-3-hydroxy-1-oxopropan-2-ylamino)-4-(3-(4′-phenylbiphenyl-4-yl)propanamido)-5-oxopentanoic acid] | 16.6 nM | > 1000 nM | > 1000 nM | 31 nM | 3.5 nM | 108 nM | 227 nM | 71 nM | – | – | – | – | – | – | – | –
11 | Cc1ccsc1-c1ccc(CCC(=O)N[C@@H](CCC(=O)O)C(=O)N[C@@H](CCC(=O)O)C(N)=O)cc1 [Compound 107, (S)-5-amino-4-((S)-4-carboxy-2-(3-(4-(3-methylthiophen-2-yl)phenyl)propanamido)butanamido)-5-oxopentanoic acid] | > 1000 nM | > 5000 nM | > 10000 nM | > 1000 nM | 84 nM | > 10000 nM | 766 nM | > 1000 nM | – | – | – | – | – | – | – | –
12 | NC(=O)[C@H](CCC(=O)O)NC(=O)[C@H](CCC(=O)O)NC(=O)CCc1ccc(-c2ccc(-c3nc4ccccc4s3)s2)cc1 [Compound 93, (S)-5-amino-4-((S)-2-(3-(4-(5-(benzo[d]thiazol-2-yl)thiophen-2-yl)phenyl)propanamido)-4-carboxybutanamido)-5-oxopentanoic acid] | 33 nM | > 5000 nM | > 1000 nM | > 1000 nM | 17 nM | > 1000 nM | 307 nM | 38.8 nM | – | – | – | – | – | – | – | –
13 | NC(=O)[C@H](CCC(=O)O)NC(=O)[C@H](CCC(=O)O)NC(=O)CCc1ccc(-n2cccc2)cc1 [Compound 36, (S)-4-(3-(4-(1H-pyrrol-1-yl)phenyl)propanamido)-5-((S)-1-amino-4-carboxy-1-oxobutan-2-ylamino)-5-oxopentanoic acid] | – | – | – | – | – | – | – | – | > 1000 nM | > 5000 nM | > 1000 nM | > 1000 nM | 59 nM | > 1000 nM | 373 nM | > 1000 nM
14 | NC(=O)[C@H](CCC(=O)O)NC(=O)[C@H](CCC(=O)O)NC(=O)CCc1ccc(-c2ncccn2)cc1 [Compound 32, (S)-5-amino-4-((S)-4-carboxy-2-(3-(4-(pyrimidin-2-yl)phenyl)propanamido)butanamido)-5-oxopentanoic acid] | 641 nM | > 1000 nM | > 1000 nM | > 5000 nM | 969 nM | > 1000 nM | > 1000 nM | > 5000 nM | – | – | – | – | – | – | – | –
15 | NC(=O)[C@H](CCC(=O)O)NC(=O)[C@H](CCC(=O)O)NC(=O)CCc1ccc(-c2cccc(N)c2)cc1 [Compound 53, (S)-5-amino-4-((S)-2-(3-(3′-aminobiphenyl-4-yl)propanamido)-4-carboxybutanamido)-5-oxopentanoic acid] | > 1000 nM | > 1000 nM | > 1000 nM | > 1000 nM | 190 nM | > 1000 nM | > 1000 nM | > 1000 nM | – | – | – | – | – | – | – | –
16 | NC(=O)[C@H](CCC(=O)O)NC(=O)[C@H](CCC(=O)O)NC(=O)CCc1ccc(-c2cccc(Cl)c2)cc1 [Compound 57, (S)-5-amino-4-((S)-4-carboxy-2-(3-(3′-chlorobiphenyl-4-yl)propanamido)butanamido)-5-oxopentanoic acid] | > 5000 nM | > 10000 nM | > 1000 nM | > 1000 nM | 57 nM | > 10000 nM | > 1000 nM | > 5000 nM | – | – | – | – | – | – | – | –
17 | NC(=O)[C@H](CCC(=O)O)NC(=O)[C@H](CCC(=O)O)NC(=O)CCc1ccc(C#Cc2ccccc2)cc1 [Compound 30, (S)-5-amino-4-((S)-4-carboxy-2-(3-(4-(phenylethynyl)phenyl)propanamido)butanamido)-5-oxopentanoic acid] | 598 nM | > 1000 nM | 235 nM | > 1000 nM | 154 nM | > 1000 nM | 818 nM | > 1000 nM | – | – | – | – | – | – | – | –
18 | NC(=O)[C@H](Cc1ccc(O)cc1)NC(=O)[C@H](CCC(=O)O)NC(=O)CCc1ccc(-c2ccccc2)cc1 [Compound 46, (S)-5-((S)-1-amino-3-(4-hydroxyphenyl)-1-oxopropan-2-ylamino)-4-(3-(biphenyl-4-yl)propanamido)-5-oxopentanoic acid] | > 1000 nM | > 5000 nM | > 1000 nM | 632 nM | 52 nM | > 10000 nM | 270 nM | > 1000 nM | – | – | – | – | – | – | – | –

— US8691753B2 (priority 2009, dated 2014)
